In patent US20020107248A1, “Method for treating patients with neoplasia by administering substituted sulfonyl indenyl acetic and propionic acids and esters thereof” (priority 1991, published 2002):

Test system: colonic bacteria

CC1=C(CC(=O)O)c2cc(F)ccc2C1=Cc1ccc(S(C)(=O)=O)cc1 [Example 10, α-(1-ρ-Methylsulfonylbenzylidene)-2-Methyl-5-Fluoro-3-Indenyl-Acetic Acid]
conversion of the sulfonyl compound in human fecal material: converted to an unknown derivative
